Reference: ChEMBL document CHEMBL1773070, “Benzophenone-based derivatives: a novel series of potent and selective dual inhibitors of acetylcholinesterase and acetylcholinesterase-induced beta-amyloid aggregation” (Eur J Med Chem, 2011)

Key:
Acetylcholinesterase = Acetylcholinesterase (Homo sapiens, UniProt P22303); assay: Inhibition of human AChE using acetylthiocholine iodide as substrate by Ellman's assay
Cholinesterase = Cholinesterase (Homo sapiens, UniProt P06276); assay: Inhibition of human BChE using butyrylthiocholine iodide as substrate by Ellman's method
Chain of Cholinesterase (P06276 whole entry): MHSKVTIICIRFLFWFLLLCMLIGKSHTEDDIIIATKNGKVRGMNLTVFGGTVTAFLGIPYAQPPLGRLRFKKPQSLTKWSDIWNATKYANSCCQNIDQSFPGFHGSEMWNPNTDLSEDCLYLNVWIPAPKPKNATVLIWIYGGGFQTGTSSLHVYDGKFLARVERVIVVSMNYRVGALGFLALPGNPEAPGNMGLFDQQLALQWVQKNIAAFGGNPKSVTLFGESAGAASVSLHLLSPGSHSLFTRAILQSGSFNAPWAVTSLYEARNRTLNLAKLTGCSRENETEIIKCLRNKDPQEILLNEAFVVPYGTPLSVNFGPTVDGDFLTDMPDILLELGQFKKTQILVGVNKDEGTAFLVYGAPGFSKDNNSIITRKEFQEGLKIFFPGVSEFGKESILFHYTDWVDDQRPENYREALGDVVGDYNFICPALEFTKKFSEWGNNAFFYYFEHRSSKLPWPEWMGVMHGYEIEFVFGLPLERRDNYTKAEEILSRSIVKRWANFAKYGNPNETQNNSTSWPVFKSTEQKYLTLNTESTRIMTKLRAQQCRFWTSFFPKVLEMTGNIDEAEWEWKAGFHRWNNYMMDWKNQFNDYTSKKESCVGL

Chain of Acetylcholinesterase (P22303 whole entry): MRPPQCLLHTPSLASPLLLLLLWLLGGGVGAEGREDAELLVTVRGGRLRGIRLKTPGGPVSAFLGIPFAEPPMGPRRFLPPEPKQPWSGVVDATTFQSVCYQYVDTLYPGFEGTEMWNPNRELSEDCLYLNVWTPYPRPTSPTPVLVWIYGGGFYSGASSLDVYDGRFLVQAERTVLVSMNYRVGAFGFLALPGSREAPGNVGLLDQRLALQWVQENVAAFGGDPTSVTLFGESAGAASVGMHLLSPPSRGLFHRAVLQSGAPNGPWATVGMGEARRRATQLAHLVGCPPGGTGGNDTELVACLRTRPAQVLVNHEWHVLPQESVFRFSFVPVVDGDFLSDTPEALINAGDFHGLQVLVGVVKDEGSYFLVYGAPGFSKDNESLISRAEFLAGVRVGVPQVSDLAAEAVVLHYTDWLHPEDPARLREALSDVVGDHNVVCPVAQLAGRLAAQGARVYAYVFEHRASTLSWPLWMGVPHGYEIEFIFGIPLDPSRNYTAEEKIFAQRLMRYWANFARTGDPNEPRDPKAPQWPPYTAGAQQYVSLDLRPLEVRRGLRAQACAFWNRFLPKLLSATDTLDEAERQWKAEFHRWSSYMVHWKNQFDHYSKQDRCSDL

Row | SMILES | IC50 (Acetylcholinesterase) [µM] | IC50 (Cholinesterase) [µM]
1 | CN(Cc1ccccc1)Cc1ccc(C(=O)c2ccc(NC(=O)CN3CCOCC3)cc2)cc1 | 0.72 | 179
2 | COc1ccc(C(=O)c2ccc(CN(C)Cc3ccccc3)cc2)cc1 |  | > 10
3 | CN(Cc1ccccc1)Cc1ccc(C(=O)c2ccc(NC(=O)CCCCN3CCCCC3)cc2)cc1 | 0.217 | 68
4 | CN(Cc1ccccc1)Cc1ccc(C(=O)c2ccc(OCCCN3CCOCC3)cc2)cc1 | 0.107 | 21
5 | CCN(CC)CCCCCCCOc1ccc(C(=O)c2ccc(CN(C)Cc3ccccc3)cc2)cc1 | 0.81 | 23
6 | CN(Cc1ccccc1)Cc1ccc(C(=O)c2ccc(OCCCCCCCN3CCCCC3)cc2)cc1 | 0.11 | 24.2
7 | CN(Cc1ccccc1)Cc1ccc(C(=O)c2ccc(OCCCCCCN3CCCCC3)cc2)cc1 | 0.21 | 9.7
8 | CCN(CC)CCCCCCOc1ccc(C(=O)c2ccc(CN(C)Cc3ccccc3)cc2)cc1 | 0.257 | 21.9
9 | CN(Cc1ccccc1)Cc1ccc(C(=O)c2ccc(NC(=O)CN3CCCCC3)cc2)cc1 | 0.55 | 145
10 | CN(Cc1ccccc1)Cc1ccc(C(=O)c2ccc(OCCCN3CCC(n4c(=O)[nH]c5ccccc54)CC3)cc2)cc1 | 0.068 | 39
11 | CCN(CC)CCCCCOc1ccc(C(=O)c2ccc(CN(C)Cc3ccccc3)cc2)cc1 | 0.144 | 34
12 | CCN(CC)CCc1ccc(Oc2ccc(C(=O)c3ccc(CN(C)Cc4ccccc4)cc3)cc2)cc1 | 0.13 | 209
13 | CN(Cc1ccccc1)Cc1ccc(C(=O)c2ccc(OCCCN3CCCCC3)cc2)cc1 | 0.024 | 11
14 | CN(Cc1ccccc1)Cc1ccc(C(=O)c2ccc(OCCCCCN3CCCCC3)cc2)cc1 | 0.143 | 10.4
15 | CCN(CC)CCCOc1ccc(C(=O)c2ccc(CN(C)Cc3ccccc3)cc2)cc1 | 0.025 | 35
16 | CCN(CC)CC(=O)Nc1ccc(C(=O)c2ccc(CN(C)Cc3ccccc3)cc2)cc1 | 0.21 | 144
